Source: publication PMC6270304, “Synthesis, Structure and Cytotoxic Activity of New Acetylenic Derivatives of Betulin” (Molecules, 2013)
In brackets after ≈: the same amount, converted by molar mass.

What was measured:
[1] = test system: T47D (human breast cancer); assay: Antiproliferative assay in vitro (SRB); assay type: cell-based; conditions: for IC50: Homo sapiens, T47D, read-out: Cytotoxic activity IC50, Human T47D
Experimental: (§1) Cytotoxic activities of all newly synthesized compounds including betulin (1) were tested in SRB or MTT (in the case of leukemia cells) assay for their antiproliferative activity in vitro against three human cancer cell lines: SW707 (colorectal adenocarcinoma), CCRF/CEM (leukemia), T47D (breast cancer), and murine leukemia P388 as well as Balb3T3 normal fibroblasts cell lines. […] A value of less than 4 μg/mL was considered as an antiproliferative activity criterion for synthetic compounds [31].
(§2) The following established in vitro cell lines were applied: SW707 (human colorectal adenocarcinoma), CCRF/CEM (human leukemia), T47D (human breast cancer), P388 (mouse leukemia) and Balb3T3 (normal mouse fibroblasts). All lines were obtained from the American Type Culture Collection (Rockville, MD, USA) and maintained at the Cell Culture Collection of the Institute of Immunology and Experimental Therapy (Wroclaw, Poland).
(§3) Twenty-four hours before addition of the tested agents, the cells were plated in 96-well plates (Sarstedt, Numbrecht, Germany) at a density of 10^4 cells per well in 100 μL of culture medium. The cells were cultured in the opti-MEM medium supplemented with 2 mM glutamine (Gibco, Grand Island, NY, USA), streptomycin (50 μg/mL), penicillin (50 U/mL) (both antibiotics from Polfa, Tarchomin, Poland) and 5% fetal calf serum (Gibco). The cell cultures were maintained at 37 °C in humid atmosphere saturated with 5% CO2.
(§4) The compounds were dissolved in DMSO and culture medium (1:9) to the concentration of 1 mg/mL, and subsequently diluted in culture medium to reach the required concentrations (ranging from […]).
(§5) The in vitro cytotoxic effect of all agents was examined using the SRB assay for adherent cells and MTT assay for leukemia cells as described by Wietrzyk et al.. Each compound in given concentration was tested in triplicates in each experiment, which was repeated 3–5 times.

[2] = test system: SW707 (human colorectal adenocarcinoma); assay: Antiproliferative assay in vitro (SRB); assay type: cell-based; conditions: for IC50: Homo sapiens, SW707, read-out: Cytotoxic activity IC50, Human SW707
Experimental: as §1, §2, §3, §4, §5

[3] = test system: Balb3T3 (normal mouse fibroblasts); assay: Antiproliferative assay in vitro (SRB); assay type: cell-based
Experimental: as §1, §2, §3, §4, §5

[4] = test system: P388 (mouse leukemia); assay: Antiproliferative assay in vitro (MTT); assay type: cell-based; conditions: for IC50: Mus musculus, P388, read-out: Cytotoxic activity IC50, Murine P388
Experimental: as §1, §2, §3, §4, §5

[5] = test system: CCRF/CEM (human leukemia); assay: Antiproliferative assay in vitro (MTT); assay type: cell-based; conditions: for IC50: Homo sapiens, CCRF-CEM, read-out: Cytotoxic activity IC50, Human CCRF/CEM
Experimental: as §1, §2, §3, §4, §5

[6] = test system: investigated cancer cell lines (T47D, CCRF/CEM, SW707, P388, Balb3T3); assay: cells; assay type: cell-based, human and murine
Experimental: as §1, §2, §3, §4, §5

With `C#CCCOC(=O)OC[C@]12CCC(C(=C)C)C1C1CCC3[C@@]4(C)CC[C@H](OC(=O)OCCC#C)C(C)(C)C4CC[C@@]3(C)[C@]1(C)CC2` (stereo partly shown) [Compound 4b, 3,28-O,O'-Di(3-butynyloxycarbonyl)betulin] the “Cytotoxic activity IC50, Human T47D” value [1] was “Neg”, the “Cytotoxic activity IC50, Human SW707” value [2] was “Neg” and the “Cytotoxic activity IC50, Murine Balb3T3” value [3] was “Neg”. The “Cytotoxic activity IC50, Murine P388” value [4] was “Neg”, the “Cytotoxic activity IC50, Human CCRF/CEM” value [5] was “Neg” and the melting point was 140 to 142 °C.

In the case of `C=C(C)C1CC[C@]2(COC(=O)OCC#CC)CC[C@]3(C)C(CCC4[C@@]5(C)CC[C@H](OC(=O)OCC#CC)C(C)(C)C5CC[C@]43C)C12` (stereo partly shown) [Compound 4c, 3,28-O,O'-Di(2-butynyloxycarbonyl)betulin], the “Cytotoxic activity IC50, Human T47D” value [1] is reported as “Neg”, the “Cytotoxic activity IC50, Human SW707” value [2] is reported as “Neg” and the “Cytotoxic activity IC50, Murine Balb3T3” value [3] is reported as “Neg”. The IC50 [4] was 50.4 ± 31.1 µg/mL (≈ 79.4 µM), the “Cytotoxic activity IC50, Human CCRF/CEM” value [5] was “Neg” and the melting point was 70 to 73 °C.

In the case of `C=C(C)C1CC[C@]2(COC(=O)C#Cc3ccccc3)CC[C@]3(C)C(CCC4[C@@]5(C)CC[C@H](OC(=O)C#Cc6ccccc6)C(C)(C)C5CC[C@]43C)C12` (stereo partly shown) [Compound 6b, 3,28-O,O'-Di(phenylpropynoyl)betulin], the “cytotoxic activity in words” value [6] is reported as “inactive”, the “Cytotoxic activity IC50, Human T47D” value [1] is reported as “Neg” and the “Cytotoxic activity IC50, Human SW707” value [2] is reported as “Neg”. The “Cytotoxic activity IC50, Murine Balb3T3” value [3] was “Neg”, the “Cytotoxic activity IC50, Murine P388” value [4] was “Neg” and the IC50 [5] was 66 ± 2.8 µg/mL (≈ 94.4 µM). It also gave a melting point of 91 to 92 °C.

For `C=C(C)C1CC[C@]2(COC(C)=O)CC[C@]3(C)C(CCC4[C@@]5(C)CC[C@H](OC(=O)OCC)C(C)(C)C5CC[C@]43C)C12` (stereo partly shown) [Compound 8d, 28-O-Acetyl-3-O'-(ethoxycarbonyl)betulin], the “Cytotoxic activity IC50, Human T47D” value [1] was “Neg”, the “Cytotoxic activity IC50, Human SW707” value [2] was “Neg” and the “Cytotoxic activity IC50, Murine Balb3T3” value [3] was “Neg”. The “Cytotoxic activity IC50, Murine P388” value [4] was “Neg”, the “Cytotoxic activity IC50, Human CCRF/CEM” value [5] was “Neg” and the melting point was 200 to 202 °C.

For `C=C(C)C1CC[C@]2(COC(C)=O)CC[C@]3(C)C(CCC4[C@@]5(C)CC[C@H](OC(C)=O)C(C)(C)C5CC[C@]43C)C12` (stereo partly shown) [Compound 7b, 3,28-O,O'-diacetylbetulin], the “Cytotoxic activity IC50, Human T47D” value [1] was “Neg”, the “Cytotoxic activity IC50, Human SW707” value [2] was “Neg” and the “Cytotoxic activity IC50, Murine Balb3T3” value [3] was “Neg”. For the same compound, the IC50 [4] was 40.2 ± 5 µg/mL (≈ 76.3 µM) and the IC50 [5] was 34.1 ± 6.4 µg/mL (≈ 64.7 µM).

Work on `C#CCCOC(=O)OC[C@]12CCC(C(=C)C)C1C1CCC3[C@@]4(C)CC[C@H](O)C(C)(C)C4CC[C@@]3(C)[C@]1(C)CC2` (stereo partly shown) [Compound 3b, 28-O-(3-Butynyloxycarbonyl)betulin] yielded an IC50 [1] of 6.9 ± 2.3 µg/mL (≈ 12.8 µM), an IC50 [2] of 22.6 ± 11.9 µg/mL (≈ 41.9 µM) and an IC50 [4] of 3.6 ± 1.3 µg/mL (≈ 6.68 µM). It also gave an IC50 [5] of 5.2 ± 1.4 µg/mL (≈ 9.65 µM) and a melting point of 86 to 88 °C.

With `C=C(C)[C@@H]1CC[C@]2(COC(C)=O)CC[C@]3(C)[C@H](CC[C@@H]4[C@@]5(C)CC[C@H](O)C(C)(C)[C@@H]5CC[C@]43C)[C@@H]12` [Compound 7a, 28-O-acetylbetulin] the IC50 [1] was 4.9 ± 0.6 µg/mL (≈ 10.1 µM), the IC50 [2] was 5.1 ± 2.5 µg/mL (≈ 10.5 µM) and the IC50 [4] was 12.5 ± 14.7 µg/mL (≈ 25.8 µM). It also gave an IC50 [5] of 3.4 ± 0.3 µg/mL (≈ 7.01 µM).

`C#CC(=O)OC[C@]12CCC(C(=C)C)C1C1CCC3[C@@]4(C)CC[C@H](OC(=O)C#C)C(C)(C)C4CC[C@@]3(C)[C@]1(C)CC2` (stereo partly shown) [Compound 6a, 3,28-O,O'-Dipropynoylbetulin] gave an IC50 [1] of 16.2 ± 4.3 µg/mL (≈ 29.6 µM), an IC50 [2] of 9.5 ± 1.9 µg/mL (≈ 17.4 µM) and an IC50 [4] of 31.9 ± 1.4 µg/mL (≈ 58.3 µM). The IC50 [5] was 9.9 ± 7 µg/mL (≈ 18.1 µM) and the melting point was 102 to 104 °C.

With `C#CCCOC(=O)O[C@H]1CC[C@@]2(C)C(CC[C@]3(C)C2CCC2C4C(C(=C)C)CC[C@]4(COC(C)=O)CC[C@]23C)C1(C)C` (stereo partly shown) [Compound 8b, 28-O-Acetyl-3-O'-(3-butynyloxycarbonyl)betulin] the “Cytotoxic activity IC50, Human T47D” value [1] was “Neg”, the “Cytotoxic activity IC50, Human SW707” value [2] was “Neg” and the “Cytotoxic activity IC50, Murine Balb3T3” value [3] was “Neg”. For the same compound, the IC50 [4] was 46.7 ± 16.2 µg/mL (≈ 80.4 µM), the “Cytotoxic activity IC50, Human CCRF/CEM” value [5] was “Neg” and the melting point was 118 to 121 °C.

For `C=C(C)C1CC[C@]2(COC(=O)OCC#CC)CC[C@]3(C)C(CCC4[C@@]5(C)CC[C@H](O)C(C)(C)C5CC[C@]43C)C12` (stereo partly shown) [Compound 3c, 28-O-(2-Butynyloxycarbonyl)betulin], the IC50 [1] was 20.1 ± 5.3 µg/mL (≈ 37.3 µM), the IC50 [2] was 36.9 ± 6.3 µg/mL (≈ 68.5 µM) and the IC50 [4] was 5.5 ± 2.8 µg/mL (≈ 10.2 µM). For the same compound, the IC50 [5] was 6.8 ± 2.9 µg/mL (≈ 12.6 µM) and the melting point was 112 to 114 °C.
